This is an account of results in paper PMC6022228, “Introducing novel potent anticancer agents of 1H-benzo[f]chromene scaffolds, targeting c-Src kinase enzyme with MDA-MB-231 cell line anti-invasion effect” (Journal of Enzyme Inhibition and Medicinal Chemistry, 2018).

Converted amounts (≈) assume the structure as drawn. “And” between values parts separate entries of the source, which are not always exact repeats. Equal entries are not always repeated.

The test system of data set [1] is HepG-2. Kind of data set: MTT viability assay, HepG-2 (liver cancer). It is filed as cell-based. Conditions: Homo sapiens, HepG2, 24 h incubation, mean ± standard error. The procedure: (§1) Compounds 4a–h and 6a–h were initially evaluated for in vitro antitumour activity against three different human cell lines: MCF-7, HCT-116, and HepG-2, and only the representative active cytotoxic compounds were further evaluated against the normal HFL-1 cell line. The in vitro cytotoxicity evaluation was performed at the Regional Center for Mycology & Biotechnology (RCMP), Al-Azhar University under different concentrations (50, 25, 12.5, 6.25, 3.125, 1.56, and 0 µg/mL); Vinblastine and Doxorubicin are used as reference cytotoxic compounds. The measurements of cell growth and the in vitro cytotoxicity evaluation were determined using viability assay as described in literature[31–33] and the result was cited in Table 1 and Figure 2.
(§2) The in vitro cytotoxic evaluation of the prepared compounds 4a–h and 6a–h was performed against MCF-7 (breast cancer), HCT-116 (human colon cancer), HepG-2 (liver cancer), and HFL-1(normal fibroblast lung) using the 3-(4,5-dimethylthiazol-2-yl)-2,5-diphenyl tetrazolium bromide (MTT) colorimetric assay as described in literature. […] The results were expressed as growth inhibitory concentration (IC50) values, which represent the compounds’ concentrations required to produce a 50% inhibition of the cell growth after 24 h of incubation, compared to the untreated controls as shown in Table 1 and Figure 2.

Data set [2] has as its system MCF-7. Briefly: MTT viability assay, MCF-7 (breast cancer). It is filed as cell-based. Conditions: Homo sapiens, MCF7, 24 h incubation, mean ± standard error. The protocol:
as §1, §2

The subject of data set [3] is HCT-116. Kind of data set: MTT viability assay, HCT-116 (human colon cancer). It is filed as cell-based. Conditions: 24 h incubation, mean ± standard error. The protocol: as §1, §2
The target in data set [4] is T1, c-Src kinase (Homo sapiens, UniProt P12931).
T1 construct: purchased Cell Signaling Technology (Danvers, MA) 7776
Briefly: c-Src kinase assay (HTScan Src Kinase Assay Kit). It is filed as biochemical. Conditions: GST-Src kinase, triplicate; read-out: Inhibition of c-Src kinase activity, IC50. The protocol: Streptavidin-coated plates were purchased from Pierce (Rockford, IL). […] The reaction mixture was incubated for 30 min at room temperature. The kinase reaction was stopped with the addition of 50 µL of 50 mM EDTA (pH 8.0). […] At the end of the incubation, the wells were washed three times with 200 µL of 0.05% Tween-20 in PBS buffer (PBS/T). After that to each well was added 100 µL of phosphotyrosine antibody (P-Tyr-100) (1:1000 dilution in PBS/T with 1% BSA) and the wells were incubated for another 60 min. After washing three times with 0.05% Tween-20 in PBS/T, the wells were incubated with 100 µL secondary anti-mouse IgG antibody, which was HRP-conjugated (1:500 dilution in PBS/T with 1% BSA) for next 30 min at room temperature. The wells were washed five times with 0.05% Tween-20 in PBS and then were incubated with 100 µL of 3,3′,5,5′-tetramethylbenzidine dihydrochloride substrate for 5 min. […] IC50 values of the compounds were calculated using ORIGIN 6.0 (Origin Lab Corporation, Northampton, MA) software. […] All the experiments were carried out in triplicate.

For data set [5], the system named is caspases 3/7 in MDA-MB-231 cells. Briefly: Caspase-Glo 3/7 activity assay. Conditions: Homo sapiens, 24 h treatment, 10 concentrations, read-out: Caspase-Glo 3/7 activity assay, MDA-MB-231 cell line, IC50. It is filed as cell-based. The protocol:
The Caspase-Glo 3/7 activity assay was performed by Reaction Biology Corporation, One Great Valley Parkway, PA. Examined compounds 4c, 4e, 4h, 6d, and 6e were dissolved in DMSO as 20 mM stock and tested for their ability to Caspase-Glo 3/7 activity assay. […] Caspase-Glo 3/7 activity assay reagent was purchased from Promega (Madison, WI). MDA-MB-231 cell line was provided by ATCC. MDA-MB-231 cell line culture conditions: DMEM with 10% FBS. 100 µg/mL penicillin and 100 µg/mL streptomycin were added to the culture media. Cultures were maintained at 37 °C in a humidified atmosphere of 5% CO2 and 95% air.
Caspases are […] that promote apoptosis. Caspases are vital biochemical features of apoptotic signalling. […] To determine whether the cell growth inhibition in response to the benzochromene derivatives was mediated by apoptosis and was caspase dependent, MDA-MB-231 cells were treated with 10 different concentrations of the target compounds for 24 h.

Data set [6] has as its system HFL-1. Briefly: MTT viability assay, HFL-1 (normal fibroblast lung). Type of data set: cell-based. Conditions: Homo sapiens, HFL1, 24 h incubation, normal cell line, mean ± standard error. The procedure: as §1, §2

T1 sequence (P12931 whole entry): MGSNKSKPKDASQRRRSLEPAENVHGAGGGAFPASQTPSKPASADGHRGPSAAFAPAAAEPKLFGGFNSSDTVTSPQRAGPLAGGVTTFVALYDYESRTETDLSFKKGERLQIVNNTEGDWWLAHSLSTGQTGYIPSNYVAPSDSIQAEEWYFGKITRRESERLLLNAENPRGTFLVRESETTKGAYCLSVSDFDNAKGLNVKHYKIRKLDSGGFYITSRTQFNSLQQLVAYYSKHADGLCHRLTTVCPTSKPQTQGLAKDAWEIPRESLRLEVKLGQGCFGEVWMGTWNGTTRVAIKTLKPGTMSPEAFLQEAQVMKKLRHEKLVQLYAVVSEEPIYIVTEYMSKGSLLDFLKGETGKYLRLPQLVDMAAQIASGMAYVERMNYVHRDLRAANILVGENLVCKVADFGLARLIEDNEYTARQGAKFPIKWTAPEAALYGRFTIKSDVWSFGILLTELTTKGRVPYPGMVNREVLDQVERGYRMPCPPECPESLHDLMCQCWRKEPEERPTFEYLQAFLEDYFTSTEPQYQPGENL

Compound `N#CC1=C(N)Oc2ccc3cc(Br)ccc3c2C1c1ccccc1` (stereo not drawn) [Compound 4a, 3-Amino-8-bromo-1-phenyl-1H-benzo[f]chromene-2-carbonitrile] registered a melting point of 245 to 246 °C. The IC50 in data set [1] came to 0.7 ± 0.5 µg/mL (≈ 1.86 µM). Moreover, the IC50 in data set [2] is 0.9 ± 0.29 µg/mL (≈ 2.39 µM). In addition, the IC50 in data set [3] stood at 1.2 ± 0.97 µg/mL (≈ 3.18 µM).
In the same order, the values of `N#CC1=C(N)Oc2ccc3cc(Br)ccc3c2C1c1ccc(F)cc1` (stereo not drawn) [Compound 4b, 3-Amino-8-bromo-1-(4-fluorophenyl)-1H-benzo[f]chromene-2-carbonitrile] are 242 to 243 °C, 0.8 ± 0.12 µg/mL (≈ 2.02 µM), 5.2 ± 0.03 µg/mL (≈ 13.2 µM) and 1 ± 0.12 µg/mL (≈ 2.53 µM).
Compound `N#CC1=C(N)Oc2ccc3cc(Br)ccc3c2C1c1ccc(Br)cc1` (stereo not drawn) [Compound 4d, 3-Amino-8-bromo-1-(4-bromophenyl)-1H-benzo[f]chromene-2-carbonitrile] showed a melting point of 250 to 251 °C. The compound also returned an IC50 in data set [1] of 1.8 ± 0.2 µg/mL (≈ 3.95 µM). Besides, the IC50 in data set [2] was 2.5 ± 0.14 µg/mL (≈ 5.48 µM). Moreover, the IC50 in data set [3] stood at 0.5 ± 0.35 µg/mL (≈ 1.1 µM).
Compound `Cc1ccc(C2C(C#N)=C(N)Oc3ccc4cc(Br)ccc4c32)cc1` (stereo not drawn) [Compound 4e, 3-Amino-8-bromo-1-(4-methylphenyl)-1H-benzo[f]chromene-2-carbonitrile] gave a melting point of 215 to 216 °C. Also, the IC50 in data set [4] was found to be 9 nM. In addition, the IC50 in data set [5] was 19.5 µM. Also, in data set [1], the IC50 amounted to 0.9 µg/mL (≈ 2.3 µM). In addition, the IC50 in data set [2] turned out to be 2.5 ± 0.18 µg/mL (≈ 6.39 µM). The compound further registered an IC50 in data set [3] of 0.7 ± 0.25 µg/mL (≈ 1.79 µM). In data set [6], this compound came in with an IC50 of 22.4 ± 0.21 µg/mL (≈ 57.2 µM).
In turn, `COc1ccc(C2C(C#N)=C(N)Oc3ccc4cc(Br)ccc4c32)cc1` (stereo not drawn) [Compound 4f, 3-Amino-8-bromo-1-(4-methoxyphenyl)-1H-benzo[f]chromene-2-carbonitrile] returned a melting point of 234 to 235 °C. Further, the IC50 in data set [1] was found to be 4.4 ± 0.05 µg/mL (≈ 10.8 µM). Moreover, the IC50 in data set [2] worked out at 3.8 ± 0.36 µg/mL (≈ 9.33 µM). In data set [3], this compound came in with an IC50 of 44.9 ± 0.14 µg/mL (≈ 110 µM).
In the same order, the values of `COc1ccc(C2C(C#N)=C(N)Oc3ccc4cc(Br)ccc4c32)c(OC)c1` (stereo not drawn) [Compound 4g, 3-Amino-8-bromo-1-(2,4-dimethoxyphenyl)-1H-benzo[f]chromene-2-carbonitrile] are 220 to 221 °C, 2.8 ± 0.17 µg/mL (≈ 6.4 µM), 3.6 ± 0.01 µg/mL (≈ 8.23 µM) and 3.7 ± 0.15 µg/mL (≈ 8.46 µM).
`COc1ccc(C2C(C#N)=C(N)Oc3ccc4cc(Br)ccc4c32)cc1OC` (stereo not drawn) [Compound 4h, 3-Amino-8-bromo-1-(3,4-dimethoxyphenyl)-1H-benzo[f]chromene-2-carbonitrile] gave a melting point of 200 to 201 °C. Also, in data set [4], the IC50 was 214 to 329 nM and 214 nM. The IC50 in data set [5] is 31.5 µM. In data set [1], this compound registered an IC50 of 11 ± 0.02 µg/mL (≈ 25.2 µM). The IC50 in data set [2] came to 0.66 ± 0.04 µg/mL (≈ 1.51 µM). This compound also gave an IC50 in data set [3] of 4.1 ± 0.16 µg/mL (≈ 9.38 µM). The same compound gave an IC50 in data set [6] of 12.9 ± 0.13 µg/mL (≈ 29.5 µM).
`COc1ccc2c3c(ccc2c1)OC(N)=C(C#N)C3c1ccccc1` (stereo not drawn) [Compound 6a, 3-Amino-1-phenyl-8-methoxy-1H-benzo[f]chromene-2-carbonitrile] had a melting point of 237 to 238 °C. Further, the IC50 in data set [1] was found to be 11.2 ± 0.18 µg/mL (≈ 34.1 µM). The compound further came in with an IC50 in data set [2] of 2.7 ± 0.2 µg/mL (≈ 8.22 µM). Moreover, the IC50 in data set [3] was 2.1 ± 0.23 µg/mL (≈ 6.4 µM).
In the same order, the values of `COc1ccc2c3c(ccc2c1)OC(N)=C(C#N)C3c1ccc(F)cc1` (stereo not drawn) [Compound 6b, 3-Amino-1-(4-flourophenyl)-8-methoxy-1H-benzo[f]chromene-2-carbonitrile] are 256 to 257 °C, 0.5 ± 0.01 µg/mL (≈ 1.44 µM), 4.4 ± 0.05 µg/mL (≈ 12.7 µM) and 4.9 ± 0.01 µg/mL (≈ 14.1 µM).
On to `COc1ccc2c3c(ccc2c1)OC(N)=C(C#N)C3c1ccc(Cl)cc1` (stereo not drawn) [Compound 6c, 3-Amino-1-(4-chlorophenyl)-8-methoxy-1H-benzo[f]chromene-2-carbonitrile], for which the melting point lay in the range of 247 to 248 °C. This compound also yielded an IC50 in data set [1] of 0.3 ± 0.08 µg/mL (≈ 0.827 µM). In data set [2], the IC50 was found to be 3.1 ± 0.29 µg/mL (≈ 8.54 µM). Besides, the IC50 in data set [3] came to 2.5 ± 0.97 µg/mL (≈ 6.89 µM).
`COc1ccc2c3c(ccc2c1)OC(N)=C(C#N)C3c1ccc(Br)cc1` (stereo not drawn) [Compound 6d, 3-Amino-1-(4-bromophenyl)-8-methoxy-1H-benzo[f]chromene-2-carbonitrile] gave a melting point of 261 to 262 °C. Besides, the IC50 in data set [4] was 214 to 329 nM and 329 nM. In data set [5], the IC50 was found to be 25.6 µM. The compound also had an IC50 in data set [1] of 0.7 ± 0.13 µg/mL (≈ 1.72 µM). Also, in data set [2], the IC50 was 2 ± 0.25 µg/mL (≈ 4.91 µM). The IC50 in data set [3] was found to be 0.9 ± 0.58 µg/mL (≈ 2.21 µM). The IC50 in data set [6] came to 35.5 ± 0.22 µg/mL (≈ 87.2 µM).
As for `COc1ccc(C2C(C#N)=C(N)Oc3ccc4cc(OC)ccc4c32)cc1` (stereo not drawn) [Compound 6f, 3-Amino-8-methoxy-1-(4-methoxyphenyl)-1H-benzo[f]chromene-2-carbonitrile], the melting point is 222 to 223 °C. Also, the IC50 in data set [1] worked out at 29.3 ± 0.12 µg/mL (≈ 81.8 µM). In addition, the IC50 in data set [2] was found to be 0.6 ± 0.08 µg/mL (≈ 1.67 µM). Besides, the IC50 in data set [3] came out at 3.8 ± 0.14 µg/mL (≈ 10.6 µM).
On the same counts, the results for `COc1ccc(C2C(C#N)=C(N)Oc3ccc4cc(OC)ccc4c32)c(OC)c1` (stereo not drawn) [Compound 6g, 3-Amino-1-(2,4-dimethoxyphenyl)-8-methoxy-1H-benzo[f]chromene-2-carbonitrile] are 210 to 211 °C, 9 ± 0.3 µg/mL (≈ 23.2 µM), 16 ± 0.92 µg/mL (≈ 41.2 µM) and 10.9 ± 0.5 µg/mL (≈ 28.1 µM).
`COc1ccc2c3c(ccc2c1)OC(N)=C(C#N)C3c1ccc(OC)c(OC)c1` (stereo not drawn) [Compound 6h, 3-Amino-1-(3,4-dimethoxyphenyl)-8-methoxy-1H-benzo[f]chromene-2-carbonitrile] gave a melting point of 200 to 201 °C. Besides, the IC50 in data set [1] came out at 30.7 ± 0.5 µg/mL (≈ 79 µM). In data set [2], the IC50 is 41.1 ± 0.25 µg/mL (≈ 106 µM). Moreover, the IC50 in data set [3] stood at 13.9 ± 0.3 µg/mL (≈ 35.8 µM).
Turning to `COc1cccc2c1C(=O)c1c(O)c3c(c(O)c1C2=O)C[C@@](O)(C(=O)CO)C[C@@H]3O[C@H]1C[C@H](N)[C@H](O)[C@H](C)O1` [Doxorubicin, reference compound], the IC50 is 0.9 ± 0.04 µg/mL (≈ 1.66 µM) in data set [1], 0.4 ± 0.01 µg/mL (≈ 0.736 µM) in data set [2] and 0.5 ± 0.015 µg/mL (≈ 0.92 µM) in data set [3].
With `CN[C@@H]1C[C@H]2O[C@@](C)([C@@H]1OC)n1c3ccccc3c3c4c(c5c6ccccc6n2c5c31)C(=O)NC4` [Staurosporine, staurosporine, reference compound], in data set [5], the IC50 was determined as 0.0685 µM.
For `CC[C@]1(O)C[C@@H]2CN(CCc3c([nH]c4ccccc34)[C@@](C(=O)OC)(c3cc4c(cc3OC)N(C)[C@H]3[C@@](O)(C(=O)OC)[C@H](OC(C)=O)[C@]5(CC)C=CCN6CC[C@]43[C@@H]65)C2)C1` [Vinblastine, reference compound], the values for the IC50 in data set [1], in data set [2] and in data set [3] were 4.6 ± 0.01 µg/mL (≈ 5.67 µM), 6.1 ± 0.03 µg/mL (≈ 7.52 µM) and 2.6 ± 0.08 µg/mL (≈ 3.21 µM), respectively.
